The values below are quoted from earlier work in PubChem BioAssay AID1259409 (Chemical Carcinogenesis Research Information System (CCRIS), 2018).

This data set deals with rodent chemically induced tumor inhibition, incidence and multiplicity. Briefly: CCRIS tumor inhibitor studies. The following applies: for tumour outcome (control, treated, inhibition, significance): Dose [Inhibitor]: 0, Promoter: NONE USED.

Turning to `CC(=O)O[C@H]1CC[C@@]2(C)C(=CC[C@@H]3[C@@H]2CC[C@]2(C)C(=O)CC[C@@H]32)C1`, the “tumour outcome (control, treated, inhibition, significance)” value (Carcinogen: 7,12-DIMETHYLBENZ[A]ANTHRACENE, 57-97-6, 5 MG/100 G BW 1/WK FOR 150 D BEGINNING POST CARCINOGEN TREATMENT (STUDY DURATION: 150 D), Route [Inhibitor]: SUBCUTANEOUS, Species: RAT, Strain/Sex: WISTAR/FEMALE, Target Tissue: Type of Lesion: MAMMARY GLAND: ADENOCARCINOMA, Dose [Carcinogen]: 4 MG IN 0.1 ML OF SESAME OIL INJECTED ONCE INTO THE EXPOSED MAMMARY TISSUE OF HYPERPROLACTINEMIC RATS ON DAY 73 OF AGE) is given as 8/11 (73%), 0/10 (0%), 100%, p<0.01.
On to `[K+]`, for which the outcome (Carcinogen: N-METHYL-N-NITROSOUREA [684-93-5], Dose [Inhibitor]: 0.05% IN DRINKING WATER, 2 WKS BEFORE CARCINOGEN AND FOR 26 WKS AFTER, Route [Inhibitor]: DRINKING WATER, Species: RAT, Strain/Sex: SPRAGUE-DAWLEY/FEMALE, Target Tissue: Type of Lesion: MAMMARY GLAND: CARCINOMA, Dose [Carcinogen]: 50 MG/KG BW ONCE AT 7 WKS OF AGE (IN SALINE SOLUTION)) was 8/11 (73%) vs 10/11 (94%) at 16 wks.
`CCCCCCCc1ccco1`: the “tumour outcome (control, treated, inhibition, significance)” value is given as 14/17 (82%), 10/15 (66%), 20%, not significant (Carcinogen: BENZO[A]PYRENE, 50-32-8, 25 UMOL IN 0.2 ML COTTONSEED OIL 3/WK FOR 4 WK BEGINNING 1 DAY PRIOR TO FIRST CARCINOGEN DOSE AND TERMINATING 1 DAY A, Route [Inhibitor]: GAVAGE, Species: MOUSE, Strain/Sex: STRAIN-A/FEMALE, Target Tissue: Type of Lesion: FORESTOMACH: TUMOR, Dose [Carcinogen]: 1 MG 2/WK FOR 4 WK); 17/17 (100%), 15/15 (100%), 0%, not significant (Carcinogen: BENZO[A]PYRENE, 50-32-8, 25 UMOL IN 0.2 ML COTTONSEED OIL 3/WK FOR 4 WK BEGINNING 1 DAY PRIOR TO FIRST CARCINOGEN DOSE AND TERMINATING 1 DAY A, Route [Inhibitor]: GAVAGE, Species: MOUSE, Strain/Sex: STRAIN-A/FEMALE, Target Tissue: Type of Lesion: LUNG: TUMOR, Dose [Carcinogen]: 1 MG 2/WK FOR 4 WK); 14/17 (82%), 9/12 (75%), 8%, not significant (Carcinogen: BENZO[A]PYRENE, 50-32-8, 50 UMOL IN 0.2 ML COTTONSEED OIL 3/WK FOR 4 WK BEGINNING 1 DAY PRIOR TO FIRST CARCINOGEN DOSE AND TERMINATING 1 DAY A, Route [Inhibitor]: GAVAGE, Species: MOUSE, Strain/Sex: STRAIN-A/FEMALE, Target Tissue: Type of Lesion: FORESTOMACH: TUMOR, Dose [Carcinogen]: 1 MG 2/WK FOR 4 WK); 17/17 (100%), 12/12 (100%), 0%, not significant (Carcinogen: BENZO[A]PYRENE, 50-32-8, 50 UMOL IN 0.2 ML COTTONSEED OIL 3/WK FOR 4 WK BEGINNING 1 DAY PRIOR TO FIRST CARCINOGEN DOSE AND TERMINATING 1 DAY A, Route [Inhibitor]: GAVAGE, Species: MOUSE, Strain/Sex: STRAIN-A/FEMALE, Target Tissue: Type of Lesion: LUNG: TUMOR, Dose [Carcinogen]: 1 MG 2/WK FOR 4 WK).
